Key:
[1] = test system: HCT-116 (colon cancer) cell line; experiment: MTT cell viability assay, HCT-116; type: cell-based, human; settings: Homo sapiens, HCT-116, 72 h, MTT, 72 h, 1-100 µM, mean ± SD
Protocol: (§1) Compounds 6–49 were evaluated in vitro for their effects on the viability of the three human cancer cell lines: HCT-116 (colon cancer), MCF-7 (breast cancer) and HeLa (cervical cancer) as well as the non-cancerous keratinocyte cell line (HaCaT). The concentration required for 50% inhibition of cell viability IC50 was calculated and compared with the reference drug cisplatin, the results are shown in Table 1.
(§2) Cell lines: colon cancer (HCT-116), breast cancer (MCF-7), cervical cancer (HeLa), the human keratinocyte cell line (HaCaT); NT—not tested; IC50 was measured at concentrations 1, 10, 25, 50, and 100 µM. IC50 values are expressed as the mean ± SD of at last three independent experiments.
(§3) All chemicals, if not stated otherwise, were obtained from Sigma–Aldrich (St. Louis, MO, USA). The HCT-116 cell lines was purchased from ATCC (ATCC-No: CCL-247), while the MCF-7, HeLa and HaCaT cell lines were purchased from Cell Lines Services (Eppelheim, Germany). Cells were cultured in Dulbecco’s modified Eagle’s medium (DMEM) supplemented with 10% fetal bovine serum, 2 mM glutamine, 100 units/mL penicillin, and 100 µg/mL streptomycin. Cultures were maintained in a humidified atmosphere with 5% carbon dioxide at 37 °C in an incubator (Heraceus, HeraCell).
(§4) Cell viability was examined using the MTT (3-(4,5-dimethylthiazol-2-yl)-2,5-diphenyltetrazolium bromide) assay. Cells were seeded in 96-well plates at a density of 5 × 10^3 cells/well and treated for 72 h with the tested compounds in the concentration range of 1–100 µM (1, 10, 25, 50 and 100 µM). Then, MTT (0.5 mg/mL) was added to the medium and cells were further incubated for 2 h at 37 °C. In the next stage, cells were lysed with DMSO and the absorbance of the formazan solution was measured at 550 nm with a plate reader (1420 multilabel counter, Victor, Jügesheim, Germany). The experiment was performed in triplicate. Values are expressed as the mean ± SD of at least three independent experiments. Cisplatin was used as a positive control.

[2] = test system: MCF-7 (breast cancer) cell line; experiment: MTT cell viability assay, MCF-7; type: cell-based, human; settings: MTT, 72 h, 1-100 µM, mean ± SD
Protocol: as §1, §2, §3, §4

[3] = test system: HeLa (cervical cancer) cell line; experiment: MTT cell viability assay, HeLa; type: cell-based, human; settings: Homo sapiens, HeLa, 72 h, MTT, 1-100 µM, mean ± SD
Protocol: as §1, §2, §3, §4

[4] = test system: HaCaT (non-cancerous keratinocyte cell line); experiment: MTT cell viability assay, HaCaT; type: cell-based; settings: Homo sapiens, 72 h, 1-100 µM, mean ± SD, non-cancerous cells
Protocol: as §1, §2, §3, §4

[5] = test system: HCT-116, MCF-7 and HeLa cell lines; experiment: MTT cell viability assay, all tested cancer cell lines taken together; type: cell-based; settings: Homo sapiens; range over HCT-116, MCF-7 and HeLa; read-out: IC50 toward all of the tested cell lines (range over the lines)
Protocol: as §1, §2, §3, §4

IC50 [1] [µM] | IC50 ([2]; Homo sapiens, MCF7, 72 h) [µM] | IC50 [3] [µM] | IC50 [5] [µM] | IC50 [2] [µM] | Structure (SMILES) | IC50 [4] [µM]
25 ± 1 | 20 ± 1 | 23 ± 1 | 17 to 30 |  | Cc1cc(S(=O)(=O)N=c2[nH]c3ccccc3[nH]2)c(SCc2nc(N)nc(N3CCc4ccccc43)n2)cc1Cl [Compound 9, 2-{[4-Amino-6-(indolin-1-yl)-1,3,5-triazin-2-yl]metylthio}-N-(1H-benzo[d]imidazol-2(3H)-ylidene)-4-chloro-5-methylbenzenesulfonamide] | 42 ± 2
42 ± 2 | > 100 | 61 ± 2 | 42 to 82 | 82 ± 3 | Cc1cc(S(=O)(=O)N=c2[nH]c3ccccc3[nH]2)c(SCc2nc(N)nc(N3CCN(C)CC3)n2)cc1Cl [Compound 18, 2-{[4-Amino-6-(4-methylpiperazin-1-yl)-1,3,5-triazin-2-yl]metylthio}-N-(1H-benzo[d]imidazol-2(3H)-ylidene)-4-chloro-5-methylbenzenesulfonamide] | 84 ± 3
15 ± 1 | 19 ± 1 | 18 ± 1 | 7 to 19 |  | Cc1cc(S(=O)(=O)N=c2[nH]c3ccccc3[nH]2)c(SCc2nc(N)nc(N3CCN(c4ccccc4)CC3)n2)cc1Cl [Compound 19, 2-{[4-Amino-6-(4-phenylpiperazin-1-yl)-1,3,5-triazin-2-yl]methylthio}-N-(1H-benzo[d]imidazol-2(3H)-ylidene)-4-chloro-5-methylbenzenesulfonamide] | 31 ± 1
16 ± 0.5 | 17 ± 0.5 | 17 ± 1 | 7 to 19 |  | Cc1cc(S(=O)(=O)N=c2[nH]c3ccccc3[nH]2)c(SCc2nc(N)nc(N3CCN(c4ccc(F)cc4)CC3)n2)cc1Cl [Compound 20, 2-[{4-Amino-6-[4-(4-fluorophenyl)piperazin-1-yl]-1,3,5-triazin-2-yl}methylthio]-N-(1H-benzo[d]imidazol-2(3H)-ylidene)-4-chloro-5-methylbenzenesulfonamide] | 35 ± 1
 | > 100 |  | 137 to 280 | 137 ± 3 | Cc1cc(S(=O)(=O)N=c2[nH]c3ccccc3[nH]2)c(SCc2nc(N)nc(N3CCN(S(=O)(=O)c4ccccc4)CC3)n2)cc1Cl [Compound 32, 2-[{4-Amino-6-[4-(phenylsulfonyl)piperazin-1-yl]-1,3,5-triazin-2-yl}methylthio]-N-(1H-benzo[d]imidazol-2(3H)-ylidene)-4-chloro-5-methylbenzenesulfonamide] | 
14 ± 1 | 24 ± 1 | 18 ± 1 |  |  | Cc1cc(S(=O)(=O)N=c2[nH]c3ccc(F)cc3[nH]2)c(SCc2nc(N)nc(N3CCN(c4ccc(F)cc4)CC3)n2)cc1Cl [Compound 38, 2-[{4-Amino-6-[4-(4-fluorophenyl)piperazin-1-yl]-1,3,5-triazin-2-yl}metylthio]-4-chloro-N-(5-fluoro-1H-benzo[d]imidazol-2(3H)-ylidene)-5-methylbenzenesulfonamide] | 38 ± 2
35 ± 2 | > 100 | 28 ± 2 |  | 74 ± 2 | Cc1cc(S(=O)(=O)N=c2[nH]c3ccc(F)cc3[nH]2)c(SCc2nc(N)nc(N3CCN(c4ccc(Cl)cc4)CC3)n2)cc1Cl [Compound 39, 2-[{4-Amino-6-[4-(4-chlorophenyl)piperazin-1-yl]-1,3,5-triazin-2-yl}metylthio]-4-chloro-N-(5-fluoro-1H-benzo[d]imidazol-2(3H)-ylidene)-5-methylbenzenesulfonamide] | 76 ± 2
16 ± 1 | 43 ± 1 | 18 ± 1 |  |  | Cc1cc(S(=O)(=O)N=c2[nH]c3ccc(F)cc3[nH]2)c(SCc2nc(N)nc(N3CCN(c4ccc(Cl)c(Cl)c4)CC3)n2)cc1Cl [Compound 40, 2-[{4-Amino-6-[4-(3,4-dichlorophenyl)piperazin-1-yl]-1,3,5-triazin-2-yl}metylthio]-4-chloro-N-(5-fluoro-1H-benzo[d]imidazol-2(3H)-ylidene)-5-methylbenzenesulfonamide] | 46 ± 1
25 ± 1 | 38 ± 2 | 30 ± 1 |  |  | CC1=NN(c2nc(N)nc(CSc3cc(Cl)c(C)cc3S(=O)(=O)N=c3[nH]c4ccc(Cl)cc4[nH]3)n2)C(C)(C)C1 [Compound 41, 2-{[4-Amino-6-(3,5,5-trimethyl-4,5-dihydro-1H-pyrazol-1-yl)-1,3,5-triazin-2-yl]metylthio}-4-chloro-N-(5-chloro-1H-benzo[d]imidazol-2(3H)-ylidene)-5-methylbenzenesulfonamide] | 49 ± 1
43 ± 1 | 44 ± 2 | 45 ± 2 |  |  | Cc1cc(S(=O)(=O)N=c2[nH]c3ccc(Cl)cc3[nH]2)c(SCc2nc(N)nc(Nc3ccc(F)cc3)n2)cc1Cl [Compound 43, 2-[{4-Amino-6-[(4-fluorophenyl)amino]-1,3,5-triazin-2-yl}methylthio]-4-chloro-N-(5-chloro-1H-benzo[d]imidazol-2(3H)-ylidene)-5-methylbenzenesulfonamide] | 55 ± 2
48 ± 1 | 47 ± 2 | 50 ± 2 |  |  | COc1ccc(Nc2nc(N)nc(CSc3cc(Cl)c(C)cc3S(=O)(=O)N=c3[nH]c4ccc(Cl)cc4[nH]3)n2)cc1 [Compound 44, 2-[{4-Amino-6-[(4-methoxyphenyl)amino]-1,3,5-triazin-2-yl}methylthio]-4-chloro-N-(5-chloro-1H-benzo[d]imidazol-2(3H)-ylidene)-5-methylbenzenesulfonamide] | 61 ± 2
15 ± 1 | 26 ± 1 | 28 ± 1 |  |  | Cc1cc(S(=O)(=O)N=c2[nH]c3ccc(Cl)cc3[nH]2)c(SCc2nc(N)nc(N3CCN(c4ccccc4)CC3)n2)cc1Cl [Compound 45, 2-[{4-Amino-6-[4-(4-phenyl)piperazin-1-yl]-1,3,5-triazin-2-yl}metylthio]-4-chloro-N-(5-chloro-1H-benzo[d]imidazol-2(3H)-ylidene)-5-methylbenzenesulfonamide] | 39 ± 1
21 ± 1 | 24 ± 1 | 22 ± 1 |  |  | Cc1cc(S(=O)(=O)N=c2[nH]c3ccc(Cl)cc3[nH]2)c(SCc2nc(N)nc(N3CCN(c4ccc(C(F)(F)F)cc4)CC3)n2)cc1Cl [Compound 47, 2-{[4-Amino-6-{4-[4-(trifluoromethyl)phenyl]piperazin-1-yl}-1,3,5-triazin-2-yl]methylthio}-4-chloro-N-(5-chloro-1H-benzo[d]imidazol-2(3H)-ylidene)-5-methylbenzenesulfonamide] | 38 ± 1
34 ± 2 | 32 ± 1 | 34 ± 1 |  |  | Cc1cc(S(=O)(=O)N=c2[nH]c3ccc(Cl)cc3[nH]2)c(SCc2nc(N)nc(N3CCN(c4ccc(Cl)c(Cl)c4)CC3)n2)cc1Cl [Compound 48, 2-[{4-Amino-6-[4-(3,4-dichlorophenyl)piperazin-1-yl]-1,3,5-triazin-2-yl}methylthio]-4-chloro-N-(5-chloro-1H-benzo[d]imidazol-2(3H)-ylidene)-5-methylbenzenesulfonamide] | 40 ± 2
30 ± 1 | 35 ± 1 | 34 ± 1 |  |  | COc1ccccc1N1CCN(c2nc(N)nc(CSc3cc(Cl)c(C)cc3S(=O)(=O)N=c3[nH]c4ccc(Cl)cc4[nH]3)n2)CC1 [Compound 49, 2-[{4-Amino-6-[4-(2-methoxyphenyl)piperazin-1-yl]-1,3,5-triazin-2-yl}methylthio]-4-chloro-N-(5-chloro-1H-benzo[d]imidazol-2(3H)-ylidene)-5-methylbenzenesulfonamide] | 96 ± 1

— article PMC7215599, “Synthesis, Antitumor Evaluation, Molecular Modeling and Quantitative Structure–Activity Relationship (QSAR) of Novel 2-[(4-Amino-6-N-substituted-1,3,5-triazin-2-yl)methylthio]-4-chloro-5-methyl-N-(1H-benzo[d]imidazol-2(3H)-ylidene)Benzenesulfonamides” (International Journal of Molecular Sciences, 2020)
